The text below walks through data of patent US7078522B2, “Pyridopyrimidine or naphthyridine derivative” (Tanabe Seiyaku Co., Ltd., priority 2001, dated 2006).

`COc1ccc(Cn2c(=O)c(C(=O)O)cc3cnc(N4CCC[C@H]4CO)nc32)cc1Cl` [Example 33]: the melting point – broadly, the temperature, or range, at which the solid turns liquid – is 258 to 264 °C. The same measure for `O=c1ccc2cnc(N3CCC[C@H]3CO)nc2n1Cc1ncccn1` [Example 19]: 150 to 151 °C; for `COc1ccc(Cn2c(=O)ccc3cnc(N4CCC[C@H]4CO)nc32)cc1` [Example 16]: 135 to 136 °C. Compound `COc1ccc(Cn2c(=O)ccc3cnc(N4CCc5ccccc5C4)nc32)cc1Cl` [Example 23] gave a melting point of 167 to 168 °C.

Regarding `COc1ccc(Cn2c(=O)cc(-c3ccccn3)c3cnc(N4CCC[C@H]4CO)nc32)cc1Cl` [Example 12, (S)-2-(2-Hydroxymethyl-1-pyrrolidinyl)-5-(2-pyridyl)-8-(3-chloro-4-methoxybenzyl)-7,8-dihydro-7-oxo-pyrido[2,3-d]pyrimidine], the melting point lay in the range of 183.5 to 186.5 °C. In the case of `COC(=O)c1c(-c2nccn2C)c2cnc(N3CCC[C@H]3CO)nc2n(Cc2ccc(OC)c(Cl)c2)c1=O` [Example 13, (S)-2-(2-Hydroxymethyl-1-pyrrolidinyl)-5-(1-methyl-2-imidazolyl)-6-methoxycarbonyl-8-(3-chloro-4-methoxybenzyl)-7,8-dihydro-7-oxo-pyrido[2,3-d]pyrimidine] it was 142 to 145 °C; in that of `COc1ccc(Cn2c(=O)ccc3ccc(N4CCC[C@H]4CO)nc32)cc1Cl` [Example 10, (S)-2-(2-Hydroxymethyl-1-pyrrolidinyl)-8-(3-chloro-4-methoxybenzyl)-7,8-dihydro-7-oxo-1,8-naphthyridine], 131 to 134 °C; in that of `COc1ccc(Cn2c(=O)ccc3cnc(NCc4ncccn4)nc32)cc1Cl` [Example 25], 172 to 173 °C.

For `COc1ccc(Cn2c(=O)ccc3cnc(N4CCc5cncnc5C4)nc32)cc1Cl` [Example 29], the melting point fell in the range of 200 to 201 °C. The same measure for `COc1ccc(Cn2c(=O)ccc3cnc(N4CCC[C@@H]4CO)nc32)cc1Cl` [Example 26]: 139 to 141 °C; for `O=c1ccc2cnc(N3CCC[C@H]3CO)nc2n1Cc1ccncc1` [Example 20]: 143 to 144 °C.

`CN(C)CCn1c(=O)ccc2cnc(N3CCC[C@H]3CO)nc21` [Example 21] returned a melting point of 102 to 104 °C. In the case of `O=c1ccc2cnc(N3CCC[C@H]3CO)nc2n1Cc1ccc2c(c1)OCO2` [Example 18] it was 154 to 155 °C; in that of `COc1ccc(Cn2c(=O)ccc3cnc(N4CCn5ccnc5C4)nc32)cc1Cl` [Example 32], 158 to 159 °C; in that of `COc1ccc(Cn2c(=O)ccc3cnc(N4CCOC(CO)C4)nc32)cc1Cl` (stereo not shown) [Example 27], 207 to 209 °C. Take `COc1ccc(Cn2c(=O)ccc3cnc(N4CCNCC4)nc32)cc1Cl` [Example 28]: the melting point was in the range of 169.5 to 170 °C.

The compound `COc1ccc(Cn2c(=O)ccc3cnc(SC)nc32)cc1Cl` [Example 24] registered a melting point of 189 to 190 °C. For `O=c1ccc2cnc(N3CCC[C@H]3CO)nc2[nH]1` [Example 15], the melting point was 99 to 103 °C.

Take `CNC(=O)c1cc2cnc(N3CCC[C@H]3CO)nc2n(Cc2ccc(OC)c(Cl)c2)c1=O`: the melting point was in the range of 191 to 191.5 °C. For `COc1ccc(Cn2c(=O)ccc3cnc(OCc4ccccn4)nc32)cc1Cl` [Example 2, 2-(2-Pyridylmethoxy)-8-(3-chloro-4-methoxybenzyl)-7,8-dihyro-7-oxo-pyrido[2,3-d]pyrimidine], the melting point lay in the range of 130 to 131 °C. The same measure for `COc1ccc(Cn2c(=O)c(C(=O)NCc3ncccn3)cc3cnc(N4CCC[C@H]4CO)nc32)cc1Cl`: 216 to 218 °C. Compound `COc1ccc(Cn2c(=O)ccc3cnc(N4CCC[C@H]4CO)nc32)cc1Cl` [Example 1, (S)-2-(2-Hydroxymethyl-1-pyrrolidinyl)-8-(3-chloro-4-methoxybenzyl)-7,8-dihydro-7-oxo-pyrido[2,3-d]pyrimidine] showed a melting point of 142 to 143 °C.

`COc1ccc(Cn2c(=O)ccc3cnc(N)nc32)cc1Cl` [Example 31] had a melting point of 234 to 242 °C. As to `COC(=O)c1cc2cnc(N3CCCCC3)nc2n(Cc2ccc(OC)c(Cl)c2)c1=O` [Example 22], the melting point was in the range of 201 to 203 °C. Compound `COc1ccc(Cn2c(=O)c(C(=O)NCCO)cc3cnc(N4CCC[C@H]4CO)nc32)cc1Cl` showed a melting point of 207 to 210 °C. In the case of `COc1ccc(Cn2c(=O)ccc3cnc(N4CCC[C@H]4CO)nc32)cc1OC` [Example 17] it was 132 °C; in that of `Cn1c(=O)ccc2cnc(N3CCC[C@H]3CO)nc21` [Example 3, (S)-2-(2-Hydroxymethyl-1-pyrrolidinyl)-8-N-mehyl-7,8-dihydro-7-oxo-pyrido[2,3-d]pyrimidine], 143 to 144 °C.

`COC(=O)c1cc2cnc(N3CCC[C@H]3CO)nc2n(Cc2ccccn2)c1=O` [Example 42]: the melting point was in the range of 199 to 201 °C.
